The supplement of paper PMC10307832

What was measured:
Assay in all cases: relative viability (nuclei count vs DMSO), 5 days (fraction); higher = more cells survive
[1] = compound: CC(C)N(CCCNC(=O)Nc1ccc(C(C)(C)C)cc1)C[C@H]1O[C@@H](n2ccc3c(N)ncnc32)[C@H](O)[C@@H]1O + CCNC(=O)c1noc(-c2cc(C(C)C)c(O)cc2O)c1-c1ccc(CN2CCOCC2)cc1 [Luminespib] (partner 0.01 µM)
Procedure, shortened: (§1)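 Lung cancer cell lines were pin-tool dosed in 1536-well plates on the day after seeding, with either a lone drug or a fixed anchor-drug dose plus five library-drug doses (not always all listed) in √10 steps. Nuclei were counted on 4× images after 5 days. Relative viability is the ratio of treated-well to vehicle-well nuclei counts, with each value a median of duplicate plates.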

Shikonin + Phenformin = compound: CC(C)=CC[C@@H](O)C1=CC(=O)c2c(O)ccc(O)c2C1=O [Shikonin] + N=C(N)NC(=N)NCCc1ccccc1 [Phenformin] (partner 250 µM)
Procedure, shortened: as §1

Shikonin + OSI-027 = compound: CC(C)=CC[C@@H](O)C1=CC(=O)c2c(O)ccc(O)c2C1=O [Shikonin] + COc1cccc2cc(-c3nc([C@H]4CC[C@H](C(=O)O)CC4)n4ncnc(N)c34)[nH]c12 [OSI-027] (partner 0.5 µM)
Procedure, shortened: as §1

Shikonin + Linsitinib = compound: CC(C)=CC[C@@H](O)C1=CC(=O)c2c(O)ccc(O)c2C1=O [Shikonin] + C[C@]1(O)C[C@@H](c2nc(-c3ccc4ccc(-c5ccccc5)nc4c3)c3c(N)nccn32)C1 [Linsitinib] (partner 1 µM)
Procedure, shortened: as §1

Cell Line | relative viability ([1]; first compound 0.08 µM) | relative viability ([1]; first compound 0.253 µM) | relative viability ([1]; first compound 0.8 µM) | relative viability ([1]; first compound 2.53 µM) | relative viability ([1]; first compound 8 µM) | relative viability (Shikonin + Phenformin; first compound 0.01 µM) | relative viability (Shikonin + Phenformin; first compound 0.1 µM) | relative viability (Shikonin + Phenformin; first compound 0.3162 µM) | relative viability (Shikonin + Phenformin; first compound 1 µM) | relative viability (Shikonin + OSI-027; first compound 0.01 µM) | relative viability (Shikonin + OSI-027; first compound 0.1 µM) | relative viability (Shikonin + OSI-027; first compound 0.3162 µM) | relative viability (Shikonin + OSI-027; first compound 1 µM) | relative viability (Shikonin + Linsitinib; first compound 0.01 µM) | relative viability (Shikonin + Linsitinib; first compound 0.1 µM) | relative viability (Shikonin + Linsitinib; first compound 0.3162 µM) | relative viability (Shikonin + Linsitinib; first compound 1 µM)
LOU-NH91 | 0.381 | 0.328 | 0.283 | 0.333 | 0.368 | 0.685 | 0.755 | 0.754 | 0.715 | 0.718 | 0.813 | 0.786 | 0.726 | 0.904 | 0.999 | 1.06 | 0.974
NCI-H322M | 0.92 | 0.759 | 0.889 | 0.76 | 0.913 | 0.871 | 0.856 | 0.754 | 0.836 | 0.548 | 0.562 | 0.53 | 0.509 | 0.919 | 0.837 | 0.993 | 1.13
NCI-H596 | 1.06 |  | 0.923 | 0.955 | 1.12 | 0.798 | 0.858 | 0.893 | 0.897 | 0.584 | 0.968 | 0.754 | 0.679 | 1.04 | 0.887 | 1.16 | 1.06
NCI-H727 | 0.372 | 0.453 | 0.445 | 0.232 | 0.471 | 0.523 | 0.604 | 0.579 | 0.543 | 0.683 | 0.668 | 0.57 | 0.525 | 0.165 | 0.252 | 0.319 | 0.314
NCI-H838 | 0.366 | 0.273 | 0.307 | 0.331 | 0.286 | 0.547 | 0.722 | 0.608 | 0.578 | 0.387 | 0.345 | 0.405 | 0.459 | 1.05 | 1.08 | 1.07 | 1.03
NCI-H1793 | 0.18 |  | 0.292 | 0.171 | 0.203 | 0.424 | 0.417 | 0.41 | 0.404 | 0.223 | 0.271 | 0.291 | 0.301 | 0.894 | 0.778 | 0.891 | 1.07
NCI-H1734 | 0.218 | 0.19 | 0.209 | 0.188 | 0.23 | 0.414 | 0.432 | 0.34 | 0.425 | 0.661 | 0.713 | 0.624 | 0.53 | 0.839 | 0.91 | 0.939 | 0.857
LXF-289 | 0.731 | 0.679 | 0.65 | 0.669 | 0.71 | 0.533 | 0.526 | 0.535 | 0.535 | 0.817 | 0.84 | 0.825 | 0.892 | 1.07 | 0.911 | 1 | 0.996
H3255 | 0.875 | 0.892 | 0.876 | 0.838 | 0.837 | 0.398 | 0.384 | 0.353 | 0.35 | 0.591 | 0.596 | 0.622 | 0.475 | 0.999 | 1.05 | 1.06 | 1.08
201T | 1.04 | 1.01 | 1.13 | 0.984 | 1.06 | 0.464 | 0.492 | 0.428 | 0.498 | 0.795 | 0.994 | 0.715 | 0.976 | 1.01 | 1.04 | 1.08 | 1.03
NCI-H2228 | 0.218 | 0.191 | 0.178 | 0.144 | 0.18 | 0.31 | 0.287 | 0.283 | 0.289 | 0.698 | 0.67 | 0.615 | 0.639 | 0.629 | 0.738 | 0.7 | 0.626
HOP-62 | 0.94 | 0.928 | 0.817 | 0.863 | 0.9 | 0.762 | 0.694 | 0.744 | 0.723 | 0.967 | 1.06 | 1.03 | 0.826 | 0.994 | 0.806 | 0.987 | 0.807
CAL-12T | 0.733 | 0.365 | 0.512 | 0.465 | 0.423 | 0.612 | 0.542 | 0.464 | 0.55 | 0.658 | 0.936 | 0.546 | 0.488 | 0.754 | 0.815 | 0.715 | 0.767
NCI-H647 | 0.267 | 0.461 |  | 0.241 | 0.245 | 0.572 | 0.677 | 0.477 | 0.538 | 0.712 | 0.631 | 0.666 | 0.602 | 1.01 | 1.37 | 1.51 | 1.32
NCI-H1755 | 0.553 | 0.53 | 0.367 | 0.43 | 0.349 | 0.696 | 0.668 | 0.659 | 0.55 | 0.765 | 0.736 | 0.827 | 0.687 | 1.04 | 1.04 | 1.05 | 1.07
NCI-H2085 | 0.434 | 0.506 | 0.441 | 0.414 | 0.389 | 0.738 | 0.847 | 0.785 | 0.637 | 0.832 | 0.973 | 0.73 | 0.773 | 0.797 | 0.903 | 0.867 | 0.865
NCI-H2023 | 0.694 | 0.771 | 0.807 | 0.858 | 0.621 | 0.352 | 0.386 | 0.452 | 0.341 | 0.394 | 0.367 | 0.443 | 0.408 | 0.655 | 0.831 | 0.687 | 0.629
